The supplement of paper PMC5908809

Assays:
Experiment in all cases: relative IC50 (inflection point of fitted viability curve, relative to fitted max inhibition); higher = less sensitive
Details in all cases: 72 h
[1] = tested on: normal primary NK cells, pool 3 (3 donors) (IL-2 2.5 ng/mL)
Protocol: (§1)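 Drug sensitivity and resistance testing: 5 concentrations over a 10,000-fold range, 72 h at 37 °C, viability by CellTiter-Glo normalised to DMSO and benzethonium chloride controls. IC50 is the inflection point of a logistic fit (min fixed at 0, max fitted), so it is relative to the fitted maximal inhibition. Kept only where fitted max inhibition is at least 50%.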

[2] = tested on: normal primary NK cells, pool 1 (3 donors) (IL-2 2.5 ng/mL)
Protocol: as §1

NK-92 (IL-2 2.5 ng/mL) = tested on: NK-92 (IL-2 2.5 ng/mL)
Protocol: as §1

YT (IL-2 2.5 ng/mL) = tested on: YT (IL-2 2.5 ng/mL)
Protocol: as §1

SNK-6 (IL-2 2.5 ng/mL) = tested on: SNK-6 (IL-2 2.5 ng/mL)
Protocol: as §1

IMC-1 (IL-2 20 ng/mL) = tested on: IMC-1 (IL-2 20 ng/mL)
Protocol: as §1

KHYG-1 (IL-2 2.5 ng/mL) = tested on: KHYG-1 (IL-2 2.5 ng/mL)
Protocol: as §1

NKL (IL-2 2.5 ng/mL) = tested on: NKL (IL-2 2.5 ng/mL)
Protocol: as §1

DERL-7 (IL-2 2.5 ng/mL) = tested on: DERL-7 (IL-2 2.5 ng/mL)
Protocol: as §1

KAI3 (IL-2 2.5 ng/mL) = tested on: KAI3 (IL-2 2.5 ng/mL)
Protocol: as §1

NK-YS (IL-2 2.5 ng/mL) = tested on: NK-YS (IL-2 2.5 ng/mL)
Protocol: as §1

[3] = tested on: normal primary NK cells, pool 1 (3 donors), resting (IL-2 0 ng/mL)
Protocol: as §1

[4] = tested on: normal primary NK cells, pool 2 (3 donors) (IL-2 2.5 ng/mL)
Protocol: as §1

SMILES | relative IC50 [1] | relative IC50 [2] | relative IC50 (NK-92 (IL-2 2.5 ng/mL)) | relative IC50 (YT (IL-2 2.5 ng/mL)) | relative IC50 (SNK-6 (IL-2 2.5 ng/mL)) | relative IC50 (IMC-1 (IL-2 20 ng/mL)) | relative IC50 (KHYG-1 (IL-2 2.5 ng/mL)) | relative IC50 (NKL (IL-2 2.5 ng/mL)) | relative IC50 (DERL-7 (IL-2 2.5 ng/mL)) | relative IC50 (KAI3 (IL-2 2.5 ng/mL)) | relative IC50 (NK-YS (IL-2 2.5 ng/mL)) | relative IC50 [3] | relative IC50 [4]
C[C@@H]1CN(CC(=O)Nc2ccc3c(c2)Cc2cccc(-c4cc(=O)cc(N5CCOCC5)o4)c2S3)C[C@H](C)O1 | 8100 nM | 5660 nM | 4490 nM | 6110 nM | 6050 nM | 7360 nM | 4430 nM | 3200 nM | 4940 nM | 4210 nM | 5880 nM | 3480 nM | 5660 nM
CC(C)[C@H](C(=O)Nc1ccc(C(=O)NO)cc1)c1ccccc1 [AR-42] | 527 nM | 367 nM | 129 nM | 527 nM | 241 nM | 289 nM | 240 nM | 219 nM | 331 nM | 77.2 nM | 540 nM | 297 nM | 430 nM
COc1cccc2c1C(=O)c1c(O)c3c(c(O)c1C2=O)C[C@@](O)(/C(CO)=N/NC(=O)CCCCCN1C(=O)C=CC1=O)C[C@@H]3O[C@H]1C[C@H](N)[C@H](O)[C@H](C)O1 [Aldoxorubicin] | 134 nM | 140 nM | 94.9 nM | 70.8 nM | 21.7 nM | 44.6 nM | 57.7 nM | 4.2 nM | 31.2 nM | 41.9 nM | 34.3 nM | 71.6 nM | 96.6 nM
CN(C)CCN1C(=O)c2cccc3cc(N)cc(c23)C1=O [Amonafide] | 2410 nM | 3500 nM | 1400 nM | 2140 nM | 1700 nM | 1940 nM | 1970 nM | 1240 nM | 1760 nM | 1280 nM | 1380 nM | 2250 nM | 2650 nM
CC(=O)OC[C@H]1O[C@@H]([S-])[C@H](OC(C)=O)[C@@H](OC(C)=O)[C@@H]1OC(C)=O.CCP(CC)CC.[Au+] [Auranofin] | 78.4 nM | 53.6 nM | 791 nM | 824 nM | 319 nM | 761 nM | 507 nM | 241 nM | 274 nM | 859 nM | 551 nM | 26.1 nM | 102 nM
Nc1nc(Nc2ccc3c(c2)CC[C@@H](N2CCCC2)CC3)nn1-c1cc2c(nn1)-c1ccccc1CCC2 [BGB324] | 1620 nM | 766 nM | 1020 nM | 2250 nM | 1290 nM | 3400 nM | 836 nM | 533 nM | 508 nM | 1110 nM | 2020 nM | 437 nM | 1070 nM
Cn1c(CCCC(=O)O)nc2cc(N(CCCl)CCCl)ccc21 [Bendamustine] | 2330 nM | 3960 nM | – | – | 1680 nM | – | – | 1420 nM | – | – | 2600 nM | 3780 nM | 2960 nM
Cc1c(N)nc([C@H](CC(N)=O)NC[C@H](N)C(N)=O)nc1C(=O)N[C@H](C(=O)N[C@H](C)[C@@H](O)[C@H](C)C(=O)N[C@H](C(=O)NCCc1nc(-c2nc(C(=O)NCCC[S+](C)C)cs2)cs1)[C@@H](C)O)[C@@H](OC1OC(CO)C(O)C(O)C1OC1OC(CO)C(O)C(OC(N)=O)C1O)c1cnc[nH]1 (stereo partly specified) [Bleomycin] | 1150 nM | 2140 nM | 662 nM | 1530 nM | 41.8 nM | 1480 nM | 2270 nM | 1150 nM | 1220 nM | 537 nM | 635 nM | 3560 nM | 1510 nM
O=C(O)CCCc1ccc(N(CCCl)CCCl)cc1 [Chlorambucil] | 3180 nM | 2830 nM | 3200 nM | – | 2210 nM | – | 3160 nM | 1410 nM | – | 1620 nM | 1930 nM | 1660 nM | 2960 nM
Nc1nc(Cl)nc2c1ncn2[C@@H]1O[C@H](CO)[C@@H](O)[C@@H]1F [Clofarabine] | 28 nM | 14.4 nM | 31.2 nM | 225 nM | 42.8 nM | 54.1 nM | 35 nM | 35.6 nM | 21.7 nM | 49.6 nM | 67 nM | 7.76 nM | 22.3 nM
CCN(CC)CCOc1ccc(C(=C(Cl)c2ccccc2)c2ccccc2)cc1 [Clomifene] | 1540 nM | 2560 nM | 1710 nM | 3030 nM | 1730 nM | 2410 nM | 2490 nM | 2280 nM | 1580 nM | 1840 nM | 2280 nM | 2170 nM | 1810 nM
CC1(COc2ccc3c(c2)ncn3-c2ccc3cccc(N4CCC(N)CC4)c3n2)COC1 [Crenolanib] | 1640 nM | 1640 nM | 998 nM | 1600 nM | 429 nM | 2710 nM | 1820 nM | 633 nM | 984 nM | 2250 nM | 1890 nM | 3660 nM | 1350 nM
C[C@@H]1C[C@H]2[C@@H]3CCC4=CC(=O)C=C[C@]4(C)[C@@]3(F)[C@@H](O)C[C@]2(C)[C@@]1(O)C(=O)CO [Dexamethasone] | 28.8 nM | 14.1 nM | – | – | – | > 10000 nM | 89.3 nM | 7.41 nM | 8.07 nM | – | – | 4.64 nM | 11.8 nM
CCc1cnn2c(NCc3ccc[n+]([O-])c3)cc(N3CCCC[C@H]3CCO)nc12 [Dinaciclib] | 6.24 nM | 10.9 nM | 7.4 nM | 3.6 nM | 4.4 nM | 11 nM | 11.3 nM | 4.24 nM | 13.7 nM | 8.92 nM | 4.68 nM | 16.4 nM | 3.72 nM
Cc1ccc(-n2nc(C(C)(C)C)cc2NC(=O)Nc2ccc(OCCN3CCOCC3)c3ccccc23)cc1 [Doramapimod] | 2980 nM | 3690 nM | 1910 nM | – | – | – | 2140 nM | 370 nM | – | 362 nM | 1300 nM | 2920 nM | 3230 nM
CCCCCCCCc1ccc(CCC(N)(CO)CO)cc1 [Fingolimod] | 3410 nM | 2450 nM | 3260 nM | 2450 nM | 2060 nM | 2310 nM | 2290 nM | 1400 nM | 2030 nM | 1670 nM | 2280 nM | 3330 nM | 1930 nM
CCCc1cc(C)[nH]c(=O)c1CNC(=O)c1cc(-c2ccnc(N3CCN(C)CC3)c2)cc2c1cnn2C(C)C [GSK343] | 3690 nM | 2470 nM | 3190 nM | 2890 nM | 3520 nM | 3630 nM | 2880 nM | 3350 nM | 2420 nM | 2480 nM | 2780 nM | 2240 nM | > 10000 nM
Nc1ccccc1NC(=O)c1ccc(CNc2nccc(-c3cccnc3)n2)cc1 [Mocetinostat] | 738 nM | 723 nM | 246 nM | 1030 nM | 242 nM | 291 nM | 340 nM | 166 nM | 381 nM | 313 nM | 697 nM | 443 nM | 703 nM
CC1(C)CCC(c2ccc(Cl)cc2)=C(CN2CCN(c3ccc(C(=O)NS(=O)(=O)c4ccc(N[C@H](CCN5CCOCC5)CSc5ccccc5)c(S(=O)(=O)C(F)(F)F)c4)cc3)CC2)C1 [Navitoclax] | 203 nM | 85.3 nM | 208 nM | 26.7 nM | 4.44 nM | 727 nM | 67.7 nM | 35.7 nM | 109 nM | 3.12 nM | 73.6 nM | 10.4 nM | 83 nM
COc1nc(N)nc2c1ncn2[C@@H]1O[C@H](CO)[C@@H](O)[C@@H]1O [Nelarabine] | 200 nM | 406 nM | – | – | – | > 10000 nM | – | 1810 nM | – | 292 nM | – | 38.6 nM | 322 nM
COC[C@H](NC(=O)c1cnc(C)s1)C(=O)N[C@@H](COC)C(=O)N[C@@H](Cc1ccccc1)C(=O)[C@@]1(C)CO1 [Oprozomib] | 24.8 nM | 34.7 nM | 32.4 nM | 49.1 nM | 50.1 nM | 76.8 nM | 48 nM | 52.5 nM | 10.5 nM | 24.1 nM | 27.7 nM | 19.2 nM | 17.9 nM
CO[C@H](C(=O)[C@@H](O)[C@@H](C)O)[C@@H]1Cc2cc3cc(O[C@H]4C[C@@H](O[C@@H]5C[C@@H](O)[C@H](O)[C@@H](C)O5)[C@H](O)[C@@H](C)O4)c(C)c(O)c3c(O)c2C(=O)[C@H]1O[C@H]1C[C@@H](O[C@@H]2C[C@@H](O)[C@@H](O[C@@H]3C[C@](C)(O)[C@H](O)[C@@H](C)O3)[C@@H](C)O2)[C@H](O)[C@@H](C)O1 [Plicamycin] | 785 nM | 136 nM | 220 nM | 31.6 nM | 11.7 nM | 730 nM | 44.7 nM | 37.9 nM | 48.2 nM | 84.1 nM | 27.7 nM | 135 nM | 692 nM
Cc1ccc(C(=O)Nc2ccc(CN3CCN(C)CC3)c(C(F)(F)F)c2)cc1C#Cc1cnc2cccnn12 [Ponatinib] | 415 nM | 240 nM | 425 nM | 121 nM | – | > 1000 nM | 270 nM | 96.1 nM | 156 nM | 213 nM | – | 55.3 nM | 335 nM
O=C(CCCCCCNC(=O)c1cnc(N(c2ccccc2)c2ccccc2)nc1)NO [Rocilinostat] | 2470 nM | 1100 nM | 1210 nM | 1810 nM | 1350 nM | 2490 nM | 1050 nM | 814 nM | 1990 nM | 823 nM | 1620 nM | 485 nM | 1550 nM
O=C(CCCCCCC(=O)Nc1ccccc1)NO [Vorinostat] | 1980 nM | 376 nM | 467 nM | 1470 nM | 713 nM | 2290 nM | 531 nM | 384 nM | 690 nM | – | 1170 nM | 394 nM | 1100 nM
c1ccc(Cn2c(-c3ccc(OC[C@H](C4CCNCC4)n4c(-c5ccccc5)nc5ccccc54)cc3)nc3ccccc32)cc1 [deltarasin] | 2910 nM | 2880 nM | 1830 nM | 2630 nM | 3290 nM | 3560 nM | 2850 nM | 2110 nM | 1950 nM | 1770 nM | 2410 nM | 1640 nM | 2270 nM
